Patent US10246457B2, “Indazole and azaindazole Btk inhibitors” (MERCK SHARP & DOHME CORP., priority 2015, dated 2019)

Assays:
[1] = molecular target: 100P Btk enzyme (activated full-length Btk) (Homo sapiens (Human), UniProt Q06187); assay: 100P Btk Enzyme Activity Assay (LANCE TR-FRET); format: biochemical; settings: activated Btk (100P), 25 μM ATP, 60 minute compound and enzyme incubation; top concentration 1000 nM; read-out: Btk binding IC50 (nM) with 100 P
Protocol: Activated full-length Btk recombinant enzyme was expressed and purified in the same manner as the […] enzyme, except an auto-phosphorylation step was added to the purification scheme. […] This protein represents the activated state of the Btk enzyme. […] Btk Enzyme Activity Assay Btk enzymatic activity was determined with the LANCE (Lanthanide Chelate Excite) TR-FRET (lime-resolved fluorescence resonance energy transfer) assay. […] MW=79378 Da). […] Phosphorylation reactions were allowed to proceed for 45 minutes. […] After 60 minutes incubation with detection reagents, reaction plates were read on a PerkinElmer EnVision plate reader using standard TR-FRET protocol. Briefly, excitation of donor molecules (Eu-chelate:anti-phospho-antibody) with a laser light source at 337 nm produces energy that can be transferred to Dylight-650 acceptor molecules if this donor:acceptor pair is within close proximity. Fluorescence intensity at both 665 nm (acceptor) and 615 nm (donor) are measured and a TR-FRET ratio calculated for each well (acceptor intensity/donor intensity). […] (Log10) compound concentrations.

[2] = molecular target: 25P Btk enzyme (un-activated full-length Btk) (Homo sapiens (Human), UniProt Q06187); assay: 25P Btk Enzyme Activity Assay (LANCE TR-FRET); format: biochemical; settings: un-activated Btk (25P), 25 μM ATP, 60 minute compound and enzyme incubation; read-out: Btk binding IC50 (nM) with 25 P
Protocol: Preparation of Un-Activated Btk Enzyme (25P Btk)
Un-activated full-length Btk recombinant protein was purified from baculovirus-transfected Sf21 cells. […] This protein represents the un-activated state of the Btk enzyme.
25P Btk Enzyme Activity Assay
Btk enzymatic activity was determined with the LANCE (Lanthanide Chelate Excite) TR-FRET (lime-resolved fluorescence resonance energy transfer) assay. […] To each well of a black non-binding surface Corning 384-well microplate (Corning Catalog #3820), 5 nL of compound (2000 fold dilution in final assay volume of 10 μL) was dispensed, followed by the addition of 7.5 μL of 1× kinase buffer (50 mM Hepes 7.5, 10 mM MgCl2, 0.01% Brij-35, 1 mM EGTA, 0.05% BSA and 1 mM DTT) containing 26.67 pg/μL (266.7 pM) of 25P Btk enzyme (recombinant protein from baculovirus-transfected Sf9 cells: full-length Btk; MW=79378 Da). Following a 60 minute compound and enzyme incubation, each reaction was initiated by the addition of 2.5 μL 1× kinase buffer containing 8 μM biotinylated “A5” peptide (Biotin-EQEDEPEGDYFEWLE-NH2), and 100 μM ATP. The final reaction in each well of 10 consists of 200 pM 25P Btk, 2 μM biotin-A5-peptide, and 25 μM ATP. Phosphorylation reactions were allowed to proceed for 120 minutes. Reactions were immediately quenched by the addition of 20 uL of 1× quench buffer (15 mM EDTA, 25 mM Hepes 7.3, and 0.1% Triton X-100) containing detection reagents (0.626 nM of LANCE-Eu-W1024-anti-phosphoTyrosine antibody, PerkinElmer and 86.8 nM of Streptavidin-conjugated Dylight 650, Dyomics/ThermoFisher Scientific). After 60 minutes incubation with detection reagents, reaction plates were read on a PerkinElmer EnVision plate reader using standard TR-FRET protocol. Briefly, excitation of donor molecules (Eu-chelate:anti-phospho-antibody) with a laser light source at 337 nm produces energy that can be transferred to Dylight-650 acceptor molecules if this donor:acceptor pair is within close proximity. Fluorescence intensity at both 665 nm (acceptor) and 615 nm (donor) are measured and a TR-FRET ratio calculated for each well (acceptor intensity/donor intensity). IC50 values were determined by 4 parameter robust fit of TR-FRET ratio values vs. (Log10) compound concentrations.

100P Btk enzyme (activated full-length Btk), sequence (Q06187 whole entry): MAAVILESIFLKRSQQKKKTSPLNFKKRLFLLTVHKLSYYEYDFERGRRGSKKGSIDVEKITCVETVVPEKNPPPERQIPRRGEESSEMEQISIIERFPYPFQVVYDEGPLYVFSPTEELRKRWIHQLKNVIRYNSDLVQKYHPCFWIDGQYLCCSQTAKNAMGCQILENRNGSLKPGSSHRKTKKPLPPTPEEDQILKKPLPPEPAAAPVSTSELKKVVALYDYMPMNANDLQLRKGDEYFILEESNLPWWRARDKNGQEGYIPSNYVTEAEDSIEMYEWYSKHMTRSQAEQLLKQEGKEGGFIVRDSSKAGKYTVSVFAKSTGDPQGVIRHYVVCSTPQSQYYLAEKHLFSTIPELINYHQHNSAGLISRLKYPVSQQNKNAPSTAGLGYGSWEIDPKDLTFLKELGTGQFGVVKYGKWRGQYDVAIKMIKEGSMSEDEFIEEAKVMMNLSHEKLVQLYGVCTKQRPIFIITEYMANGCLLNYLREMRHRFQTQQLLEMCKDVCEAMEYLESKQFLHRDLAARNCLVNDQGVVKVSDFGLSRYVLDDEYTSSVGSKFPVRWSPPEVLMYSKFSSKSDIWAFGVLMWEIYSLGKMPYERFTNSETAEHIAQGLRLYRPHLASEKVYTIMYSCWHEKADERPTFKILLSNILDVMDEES
25P Btk enzyme (un-activated full-length Btk), sequence (Q06187 whole entry): as above

Structure (SMILES): CC(C)(C)c1cc(F)c2c(c1)CCN(c1cccc(-c3cc(C(N)=O)c4[nH]nc(N)c4c3)c1CO)C2=O [Example 16, 3-amino-5-[3-(6-tert-butyl-8-fluoro-1-oxo-3,4-dihydroisoquinolin-2(1H)-yl)-2-(hydroxymethyl)phenyl]-1H-indazole-7-carboxamide]
- IC50 [1]: 145 nM
- IC50 [2]: 0.49 nM

Structure (SMILES): CC(C)(C)c1cc(F)c2c(=O)n(-c3cccc(-c4cc(C(F)(F)F)c5[nH]nc(N)c5c4)c3CO)ncc2c1 [Example 4, 2-{3-[3-amino-7-(trifluoromethyl)-1H-indazol-5-yl]-2-(hydroxymethyl)phenyl}-6-tert-butyl-8-fluorophthalazin-1(2H)-one]
- IC50 [2]: 38.6 nM

Structure (SMILES): Cc1nn(C)cc1-c1cc(-c2cccc(-n3ncc4cc(C(C)(C)C)cc(F)c4c3=O)c2CO)cc2c(N)n[nH]c12 [Example 27, 2-(3-(3-amino-7-(1,3-dimethyl-1H-pyrazol-4-yl)-1H-indazol-5-yl)-2-(hydroxymethyl)phenyl)-6-(tert-butyl)-8-fluorophthalazin-1(2H)-one]
- IC50 [1]: 69.5 nM
- IC50 [2]: 0.43 nM

Structure (SMILES): CC(C)(C)c1cc(F)c2c(=O)n(-c3cccc(-c4cc(C(N)=O)c5[nH]nc(N)c5c4)c3CO)ncc2c1 [Example 3, 3-amino-5-[3-(6-tert-butyl-8-fluoro-1-oxophthalazin-2(1H)-yl)-2-(hydroxymethyl)phenyl]-1H-indazole-7-carboxamide]
- IC50 [1]: 16 nM
- IC50 [2]: 0.16 nM

Structure (SMILES): CC(C)n1cc(-c2cc(-c3cccc(-n4ncc5cc(C(C)(C)C)cc(F)c5c4=O)c3CO)cc3c(N)n[nH]c23)cn1 [Example 6, 2-[3-{3-amino-7-[1-(1-methylethyl)-1H-pyrazol-4-yl]-1H-indazol-5-yl}-2-(hydroxymethyl)phenyl]-6-tert-butyl-8-fluorophthalazin-1(2H)-one]
- IC50 [1]: 3.8 nM
- IC50 [2]: 0.15 nM

Structure (SMILES): CC(C)(C)c1cc(F)c2c(=O)n(-c3cccc(-c4cc(C(=O)O)c5[nH]nc(N)c5c4)c3CO)ncc2c1 [Example 1, 3-amino-5-[3-(6-tert-butyl-8-fluoro-1-oxophthalazin-2(1H)-yl)-2-(hydroxymethyl)phenyl]-1H-indazole-7-carboxylic acid]
- IC50 [1]: 112 nM
- IC50 [2]: 0.14 nM

Structure (SMILES): CC(C)(C)c1cc(F)c2c(=O)n(-c3cccc(-c4cc(-c5cnn(CC(=O)O)c5)c5[nH]nc(N)c5c4)c3CO)ncc2c1 [Example 23, 2-(4-(3-amino-5-(3-(6-(tert-butyl)-8-fluoro-1-oxophthalazin-2(1H)-yl)-2-(hydroxymethyl)phenyl)-1H-indazol-7-yl)-1H-pyrazol-1-yl)acetic acid]
- IC50 [1]: 20 nM
- IC50 [2]: 0.18 nM

Structure (SMILES): CC(C)(C)c1cc(F)c2c(=O)n(-c3cccc(-c4cc(-c5cnn(C(C)(C)C(=O)O)c5)c5[nH]nc(N)c5c4)c3CO)ncc2c1 [Example 24, 2-(4-(3-amino-5-(3-(6-(tert-butyl)-8-fluoro-1-oxophthalazin-2(1H)-yl)-2-(hydroxymethyl)phenyl)-1H-indazol-7-yl)-1H-pyrazol-1-yl)-2-methylpropanoic acid]
- IC50 [1]: 31.5 nM
- IC50 [2]: 0.28 nM

Structure (SMILES): CC(C)(C)c1cc(F)c2c(=O)n(-c3cccc(-c4cc(-c5cnn6c5CCCC6)c5[nH]nc(N)c5c4)c3CO)ncc2c1 [Example 28, 2-(3-(3-amino-7-(4,5,6,7-tetrahydropyrazolo[1,5-a]pyridin-3-yl)-1H-indazol-5-yl)-2-(hydroxymethyl)phenyl)-6-(tert-butyl)-8-fluorophthalazin-1(2H)-one]
- IC50 [1]: 360 nM
- IC50 [2]: 1.7 nM

Structure (SMILES): CC(C)n1ccc(-c2cc(-c3cccc(-n4ncc5cc(C(C)(C)C)cc(F)c5c4=O)c3CO)cc3c(N)n[nH]c23)n1 [Example 17, 2-[3-{3-amino-7-[1(1-methylethyl)-1H-pyrazol-3-yl]-1H-indazol-5-yl}-2-(hydroxymethyl)phenyl]-6-tert-butyl-8-fluorophthalazin-1(2H)-one]
- IC50 [1]: 13 nM
- IC50 [2]: 0.16 nM

Structure (SMILES): Cc1c(NC(=O)c2ccc(C(C)(C)C(F)(F)F)cc2F)cccc1-c1cc(C(N)=O)c2[nH]nc(N)c2c1 [Example 8, 3-amino-5-[3-({[2-fluoro-4-(2,2,2-trifluoro-1,1-dimethylethyl)phenyl]carbonyl}amino)-2-methylphenyl]-1H-indazole-7-carboxamide]
- IC50 [2]: 268 nM

Structure (SMILES): CNC(=O)c1cc(-c2cccc(-n3ncc4cc(C(C)(C)C)cc(F)c4c3=O)c2CO)cc2c(N)n[nH]c12 [Example 11, 3-amino-5-[3-(6-tert-butyl-8-fluoro-1-oxophthalazin-2(1H)-yl)-2-(hydroxymethyl)phenyl]-N-methyl-1H-indazole-7-carboxamide]
- IC50 [1]: 29.3 nM
- IC50 [2]: 0.16 nM

Structure (SMILES): CC(C)(C)c1cc(F)c2c(=O)n(-c3cccc(-c4cc(-c5ccccn5)c5[nH]nc(N)c5c4)c3CO)ncc2c1 [Example 22, 2-(3-(3-amino-7-(pyridin-2-yl)-1H-indazol-5-yl)-2-(hydroxymethyl)phenyl)-6-(tert-butyl)-8-fluorophthalazin-1(2H)-one]
- IC50 [1]: 17.4 nM
- IC50 [2]: 0.11 nM

Structure (SMILES): Cc1cc2[nH]nc(N)c2cc1-c1cccc(-n2ncc3cc(C(C)(C)C)cc(F)c3c2=O)c1CO [Example 2, 2-[3-(3-amino-6-methyl-1H-indazol-5-yl)-2-(hydroxymethyl)phenyl]-6-tert-butyl-8-fluorophthalazin-1(2H)-one]
- IC50 [1]: 341 nM
- IC50 [2]: 10.9 nM

Structure (SMILES): Cn1cc(-c2cc(-c3cccc(NC(=O)c4cc5c(s4)CCCC5)c3CO)cc3c(N)n[nH]c23)cn1 [Example 18, N-{3-[3-amino-7-(1-methyl-1H-pyrazol-4-yl)-1H-indazol-5-yl]-2-(hydroxymethyl)phenyl}-4,5,6,7-tetrahydro-1-benzothiophene-2-carboxamide]
- IC50 [1]: 11.6 nM
- IC50 [2]: 0.13 nM

Structure (SMILES): CC(C)(C)c1cc(F)c2c(=O)n(-c3cccc(-c4cc(C(=O)N5CCOCC5)c5[nH]nc(N)c5c4)c3CO)ncc2c1 [Example 14, 2-{3-[3-amino-7-(morpholin-4-ylcarbonyl)-1H-indazol-5-yl]-2-(hydroxymethyl)phenyl}-6-tert-butyl-8-fluorophthalazin-1(2H)-one]
- IC50 [2]: 173 nM

Structure (SMILES): Cn1nc(N)c2cc(-c3cccc(-n4ncc5cc(C(C)(C)C)cc(F)c5c4=O)c3CO)cc(C(N)=O)c21 [Example 5, 3-amino-5-[3-(6-tert-butyl-8-fluoro-1-oxophthalazin-2 (1H)-yl)-2-(hydroxymethyl)phenyl]-1-methyl-1H-indazole-7-carboxamide]
- IC50 [2]: 47.3 nM

Structure (SMILES): CC(C)(C)c1cc(F)c2c(=O)n(-c3cccc(-c4ccc5c(c4)c(N)nn5Cc4ccncc4)c3CO)ncc2c1 [Example 12, 2-{3-[3-amino-1-(pyridin-4-ylmethyl)-1H-indazol-5-yl]-2-(hydroxymethyl)phenyl}-6-tert-butyl-8-fluorophthalazin-1(2H)-one]
- IC50 [2]: 29.6 nM

Structure (SMILES): Cc1c(NC(=O)c2ccc(C(C)(C)C)cc2F)cccc1-c1cc(C(N)=O)c2[nH]nc(N)c2c1 [Example 7, 3-amino-5-(3-{[(4-tert-butyl-2-fluorophenyl)carbonyl]amino}-2-methylphenyl)-1H-indazole-7-carboxamide]
- IC50 [2]: 64.5 nM

Structure (SMILES): Cc1c(NC(=O)c2ccc(C(C)(C)C)cc2)cccc1-c1cc(-c2cnn(C)c2)c2[nH]nc(N)c2c1 [Example 13, N-{3-[3-amino-7-(1-methyl-1H-pyrazol-4-yl)-1H-indazol-5-yl]-2-methylphenyl}-4-tert-butylbenzamide]
- IC50 [2]: 16.7 nM

Structure (SMILES): CC(C)(C)c1cc(F)c2c(=O)n(-c3cccc(-c4ccc5[nH]nc(N)c5n4)c3CO)ncc2c1 [Example 20, 2-[3-(3-amino-1H-pyrazolo[4,3-b]pyridin-5-yl)-2-(hydroxymethyl)phenyl]-6-tert-butyl-8-fluorophthalazin-1(2H)-one]
- IC50 [2]: 7.7 nM
